According to paper PMC4362760, “JAK2^V617F Drives Mcl-1 Expression and Sensitizes Hematologic Cell Lines to Dual Inhibition of JAK2 and Bcl-xL” (PLoS ONE, 2015):

Columns and labels:
HEL cells [1] = assay: Cell viability of HEL cells after siRNA transfection and 72 hr ABT-263; format: cell-based
Procedure: (§1) Transfection of siRNAs was performed using Lipofectamine RNAiMAX according to the manufacturer’s recommendations. […] Caspase-3 activity was determined using the Caspase-GLO 3/7 Assay (Promega) in parallel with the CellTiter-GLO viability assay (Promega). The data are expressed as Caspase-3/7 activity divided by cell viability. […]

K562 cells = assay: Cell viability of K562 cells after siRNA transfection and 72 hr ABT-263; format: cell-based
Procedure: as §1
Data are means of duplicate samples and are representative of two independent experiments. (XLS) Click here for additional data file.

HEL cells [2] = assay: alamarBlue cell viability, JAKi-I/ABT-263 combination, 72 hr, HEL; format: cell-based; details: Jaki-1 0 uM
Procedure: Transfection of siRNAs was performed using Lipofectamine RNAiMAX according to the manufacturer’s recommendations. […] Caspase-3 activity was determined using the Caspase-GLO 3/7 Assay (Promega) in parallel with the CellTiter-GLO viability assay (Promega). The data are expressed as Caspase-3/7 activity divided by cell viability.
Caspase-3 activity was determined at each time point. Data are from duplicate samples and are representative of at least three independent experiments. (D-G) Cells were treated in combination as indicated, and cell viability was determined after 72 hr. Data are means of duplicate determinations, and are representative of at least three independent experiments. […] Drugs were added simultaneously, and cell viability was determined after 72 hr. The data were then analyzed using the drug-drug interaction model of Bliss additivity^16 to define dose combinations that were synergistic (values >15; red), antagonistic (values <-15; blue), or without effect (-15<values<15; gray). (I) Model of JAK2/Bcl-2 family inhibitor synergy. JAK2^V617F constitutively phosphorylates and activates STAT3/5, thus enforcing expression of the transcriptional target, Mcl-1. Mcl-1 collaborates with Bcl-XL to oppose apoptosis and support viability.
Supplementary file pone.0114363.s006.xls: S6 Dataset Cells were treated in combination as indicated, and cell viability was determined using alamarBlue after 72 hr. Data are means of duplicate determinations, and are representative of at least three independent experiments. (XLS) Click here for additional data file.

Bcl-w = details: cited from earlier work
MAP2K3 = MAP2K3 (Homo sapiens, UniProt P46734); assay: TR-FRET Kinome MAP2K3; format: binding; details: MAP2K3 Invitrogen .075(Subs Conc)
Chain of MAP2K3 (P46734 whole entry): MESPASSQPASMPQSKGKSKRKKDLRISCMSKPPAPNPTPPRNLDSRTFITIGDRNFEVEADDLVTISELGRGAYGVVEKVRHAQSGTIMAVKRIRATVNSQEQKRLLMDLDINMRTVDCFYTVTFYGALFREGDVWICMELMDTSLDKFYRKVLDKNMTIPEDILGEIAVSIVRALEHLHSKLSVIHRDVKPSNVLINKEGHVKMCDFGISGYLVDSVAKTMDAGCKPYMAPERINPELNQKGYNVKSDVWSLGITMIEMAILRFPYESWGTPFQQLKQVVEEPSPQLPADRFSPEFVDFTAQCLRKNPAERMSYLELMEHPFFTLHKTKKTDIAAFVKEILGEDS
Text: (§2) (XLS) Click here for additional data file.

PKCzeta = PKCzeta (Homo sapiens, UniProt Q05513); assay: TR-FRET Kinome PKCzeta; format: binding; details: PKCzeta Millipore IVGN Tracer .05(Subs Conc)
Chain of PKCzeta (Q05513 whole entry): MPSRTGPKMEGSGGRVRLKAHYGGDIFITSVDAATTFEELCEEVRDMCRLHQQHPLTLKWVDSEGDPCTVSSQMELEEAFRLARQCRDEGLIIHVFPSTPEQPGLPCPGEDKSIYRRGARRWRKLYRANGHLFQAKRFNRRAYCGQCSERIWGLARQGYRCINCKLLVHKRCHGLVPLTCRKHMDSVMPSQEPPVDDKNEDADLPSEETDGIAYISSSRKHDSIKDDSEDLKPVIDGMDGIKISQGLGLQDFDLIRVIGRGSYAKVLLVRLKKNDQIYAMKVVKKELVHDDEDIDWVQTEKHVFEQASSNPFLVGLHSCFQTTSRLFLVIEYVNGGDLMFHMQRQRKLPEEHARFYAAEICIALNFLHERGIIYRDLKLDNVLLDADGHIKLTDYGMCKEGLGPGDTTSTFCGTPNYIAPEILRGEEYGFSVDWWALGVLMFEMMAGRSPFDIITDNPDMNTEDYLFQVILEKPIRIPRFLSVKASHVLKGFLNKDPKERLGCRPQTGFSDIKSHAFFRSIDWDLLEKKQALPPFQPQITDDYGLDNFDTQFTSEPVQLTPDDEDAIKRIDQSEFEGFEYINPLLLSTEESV
Text: as §2

Plk3 = Plk3 (Homo sapiens, UniProt Q9H4B4); assay: TR-FRET Kinome Plk3; format: binding; details: Plk3 Invitrogen .05(Subs Conc)
Chain of Plk3 (Q9H4B4 whole entry): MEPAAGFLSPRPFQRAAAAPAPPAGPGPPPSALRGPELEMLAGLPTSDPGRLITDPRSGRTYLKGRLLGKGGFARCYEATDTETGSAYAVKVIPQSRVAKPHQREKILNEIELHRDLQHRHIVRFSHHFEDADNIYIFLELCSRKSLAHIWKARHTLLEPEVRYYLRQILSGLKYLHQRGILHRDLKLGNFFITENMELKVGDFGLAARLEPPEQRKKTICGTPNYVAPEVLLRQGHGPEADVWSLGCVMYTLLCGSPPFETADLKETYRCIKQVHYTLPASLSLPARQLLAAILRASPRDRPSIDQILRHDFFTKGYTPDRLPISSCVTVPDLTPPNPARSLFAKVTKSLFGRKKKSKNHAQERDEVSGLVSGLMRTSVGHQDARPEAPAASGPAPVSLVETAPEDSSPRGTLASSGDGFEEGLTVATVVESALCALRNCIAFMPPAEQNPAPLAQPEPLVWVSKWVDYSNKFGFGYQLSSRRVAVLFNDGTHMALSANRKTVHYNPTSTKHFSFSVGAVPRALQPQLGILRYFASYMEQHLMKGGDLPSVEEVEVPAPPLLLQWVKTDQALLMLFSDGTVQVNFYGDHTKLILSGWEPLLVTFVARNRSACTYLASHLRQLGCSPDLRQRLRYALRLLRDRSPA
Text: as §2

Rock2 = Rock2 (Homo sapiens, UniProt O75116); assay: TR-FRET Kinome Rock2; format: binding; details: Rock2 Invitrogen .012(Subs Conc)
Chain of Rock2 (O75116 whole entry): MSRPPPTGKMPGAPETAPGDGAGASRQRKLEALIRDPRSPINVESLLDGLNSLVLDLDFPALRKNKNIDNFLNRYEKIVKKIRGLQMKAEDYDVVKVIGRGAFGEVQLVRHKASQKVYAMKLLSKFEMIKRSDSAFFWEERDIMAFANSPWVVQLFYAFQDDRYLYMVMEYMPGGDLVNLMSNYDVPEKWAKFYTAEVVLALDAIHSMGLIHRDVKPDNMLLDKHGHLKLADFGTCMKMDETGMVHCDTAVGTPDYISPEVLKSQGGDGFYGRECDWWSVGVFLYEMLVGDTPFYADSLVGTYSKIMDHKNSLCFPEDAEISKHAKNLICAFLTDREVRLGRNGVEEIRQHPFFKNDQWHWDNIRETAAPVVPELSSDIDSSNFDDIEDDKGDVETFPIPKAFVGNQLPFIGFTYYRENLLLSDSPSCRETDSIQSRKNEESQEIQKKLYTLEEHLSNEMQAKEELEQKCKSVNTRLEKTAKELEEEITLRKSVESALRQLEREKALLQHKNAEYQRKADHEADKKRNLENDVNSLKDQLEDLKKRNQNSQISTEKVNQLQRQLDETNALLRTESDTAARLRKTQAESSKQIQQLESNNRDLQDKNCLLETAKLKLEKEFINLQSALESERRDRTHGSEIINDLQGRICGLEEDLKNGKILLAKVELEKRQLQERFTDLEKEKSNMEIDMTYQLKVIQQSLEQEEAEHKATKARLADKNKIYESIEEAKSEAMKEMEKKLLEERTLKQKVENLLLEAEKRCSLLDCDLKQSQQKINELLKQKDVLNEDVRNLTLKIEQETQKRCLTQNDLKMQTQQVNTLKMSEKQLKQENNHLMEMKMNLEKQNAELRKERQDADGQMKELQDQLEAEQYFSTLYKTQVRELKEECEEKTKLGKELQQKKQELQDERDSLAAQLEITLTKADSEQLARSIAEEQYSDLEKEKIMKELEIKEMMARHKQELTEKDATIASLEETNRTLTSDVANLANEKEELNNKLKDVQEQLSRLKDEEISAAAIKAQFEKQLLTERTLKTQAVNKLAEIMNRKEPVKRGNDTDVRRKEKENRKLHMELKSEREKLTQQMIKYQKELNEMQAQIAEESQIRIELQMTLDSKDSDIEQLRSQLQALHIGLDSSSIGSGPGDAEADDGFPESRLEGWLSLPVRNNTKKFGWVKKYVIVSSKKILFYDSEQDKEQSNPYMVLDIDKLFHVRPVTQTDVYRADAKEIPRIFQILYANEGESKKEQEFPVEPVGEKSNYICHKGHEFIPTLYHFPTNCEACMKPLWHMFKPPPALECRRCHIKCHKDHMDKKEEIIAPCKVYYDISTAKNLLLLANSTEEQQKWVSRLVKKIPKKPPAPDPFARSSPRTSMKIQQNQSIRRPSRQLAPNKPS
Text: as §2

STK33 = STK33 (Homo sapiens, UniProt Q9BYT3); assay: TR-FRET Kinome STK33; format: binding; details: STK33 Invitrogen .005(Subs Conc)
Chain of STK33 (Q9BYT3 whole entry): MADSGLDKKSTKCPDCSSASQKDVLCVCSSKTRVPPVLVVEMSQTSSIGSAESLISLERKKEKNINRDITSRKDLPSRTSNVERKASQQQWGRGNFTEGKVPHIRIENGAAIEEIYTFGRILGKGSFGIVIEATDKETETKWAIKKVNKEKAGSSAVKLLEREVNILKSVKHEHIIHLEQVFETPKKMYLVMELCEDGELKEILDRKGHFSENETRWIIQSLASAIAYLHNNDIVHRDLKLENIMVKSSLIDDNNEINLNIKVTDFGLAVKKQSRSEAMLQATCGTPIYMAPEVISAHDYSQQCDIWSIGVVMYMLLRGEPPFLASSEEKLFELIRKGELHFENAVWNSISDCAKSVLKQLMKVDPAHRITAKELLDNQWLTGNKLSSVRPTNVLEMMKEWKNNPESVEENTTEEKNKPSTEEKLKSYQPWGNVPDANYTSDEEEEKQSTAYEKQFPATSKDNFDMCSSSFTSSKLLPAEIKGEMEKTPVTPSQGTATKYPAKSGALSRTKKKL
Text: as §2

TAOK2 = TAOK2 (Homo sapiens, UniProt Q9UL54); assay: TR-FRET Kinome TAOK2; format: binding; details: TAOK2 Invitrogen .2(Subs Conc)
Chain of TAOK2 (Q9UL54 whole entry): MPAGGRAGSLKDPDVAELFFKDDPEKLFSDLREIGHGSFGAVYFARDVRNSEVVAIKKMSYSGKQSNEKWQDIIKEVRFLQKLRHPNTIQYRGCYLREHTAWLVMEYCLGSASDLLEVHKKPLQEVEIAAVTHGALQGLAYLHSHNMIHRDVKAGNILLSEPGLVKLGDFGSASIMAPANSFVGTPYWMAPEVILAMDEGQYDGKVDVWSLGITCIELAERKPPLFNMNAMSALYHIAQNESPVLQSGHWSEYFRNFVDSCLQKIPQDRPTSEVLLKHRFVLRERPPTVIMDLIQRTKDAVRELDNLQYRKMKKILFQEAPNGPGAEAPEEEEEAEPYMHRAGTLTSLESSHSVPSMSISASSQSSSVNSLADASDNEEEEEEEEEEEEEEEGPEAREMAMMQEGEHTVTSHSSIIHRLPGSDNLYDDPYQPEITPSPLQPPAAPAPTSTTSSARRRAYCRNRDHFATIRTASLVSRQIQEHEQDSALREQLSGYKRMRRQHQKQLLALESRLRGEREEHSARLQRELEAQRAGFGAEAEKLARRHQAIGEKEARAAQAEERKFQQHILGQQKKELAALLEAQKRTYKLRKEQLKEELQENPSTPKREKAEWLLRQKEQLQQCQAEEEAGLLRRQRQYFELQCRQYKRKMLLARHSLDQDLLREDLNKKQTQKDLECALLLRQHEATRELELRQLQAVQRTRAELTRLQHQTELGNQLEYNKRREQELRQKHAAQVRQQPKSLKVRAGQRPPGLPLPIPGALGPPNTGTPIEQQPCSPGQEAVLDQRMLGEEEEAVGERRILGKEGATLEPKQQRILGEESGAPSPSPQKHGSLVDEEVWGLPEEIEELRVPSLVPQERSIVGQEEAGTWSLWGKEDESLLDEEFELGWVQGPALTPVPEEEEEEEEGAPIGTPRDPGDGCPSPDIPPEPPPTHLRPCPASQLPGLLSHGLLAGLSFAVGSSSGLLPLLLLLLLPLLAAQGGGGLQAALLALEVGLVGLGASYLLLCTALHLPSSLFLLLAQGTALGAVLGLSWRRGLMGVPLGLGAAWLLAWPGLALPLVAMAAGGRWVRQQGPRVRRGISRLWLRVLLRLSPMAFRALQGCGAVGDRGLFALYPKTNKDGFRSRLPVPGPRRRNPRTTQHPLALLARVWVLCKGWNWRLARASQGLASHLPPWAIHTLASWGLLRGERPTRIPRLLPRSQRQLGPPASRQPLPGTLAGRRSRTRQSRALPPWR
Text: as §2

[3] = tested on: STAT3 binding to the Mcl-1 promoter; assay: ChIP of STAT3 binding to the Mcl-1 promoter (EZ-ChIP); format: cell-based; details: 1 μM, 6 hr; cell lines expressing JAK2 V617F, not in lines without this lesion

CC1(C)CCC(c2ccc(Cl)cc2)=C(CN2CCN(c3ccc(C(=O)NS(=O)(=O)c4ccc(N[C@H](CCN5CCOCC5)CSc5ccccc5)c(S(=O)(=O)C(F)(F)F)c4)cc3)CC2)C1 [ABT-263]
Cell Viability (% Inhibiton) (HEL cells [1]; Unt., ABT-263 0.003 uM): 0% | Cell Viability (% Inhibiton) (HEL cells [1]; Unt., ABT-263 0.01 uM): 0% | Cell Viability (% Inhibiton) (HEL cells [1]; Unt., ABT-263 0.03 uM): 3% | Cell Viability (% Inhibiton) (HEL cells [1]; Unt., ABT-263 0.1 uM): 37% | Cell Viability (% Inhibiton) (HEL cells [1]; Unt., ABT-263 0.3 uM): 94% | Cell Viability (% Inhibiton) (HEL cells [1]; Unt., ABT-263 1 uM): 97% | Cell Viability (% Inhibiton) (HEL cells [1]; siMcl1-1, ABT-263 0.003 uM): 0% | Cell Viability (% Inhibiton) (HEL cells [1]; siMcl1-1, ABT-263 0.01 uM): 0% | Cell Viability (% Inhibiton) (HEL cells [1]; siMcl1-1, ABT-263 0.03 uM): 0% | Cell Viability (% Inhibiton) (HEL cells [1]; siMcl1-1, ABT-263 0.1 uM): 40% | Cell Viability (% Inhibiton) (HEL cells [1]; siMcl1-1, ABT-263 0.3 uM): 97% | Cell Viability (% Inhibiton) (HEL cells [1]; siMcl1-1, ABT-263 1 uM): 100% | Cell Viability (% Inhibiton) (HEL cells [1]; siMcl1-2, ABT-263 0.003 uM): 0% | Cell Viability (% Inhibiton) (HEL cells [1]; siMcl1-2, ABT-263 0.01 uM): 21% | Cell Viability (% Inhibiton) (HEL cells [1]; siMcl1-2, ABT-263 0.03 uM): 38% | Cell Viability (% Inhibiton) (HEL cells [1]; siMcl1-2, ABT-263 0.1 uM): 79% | Cell Viability (% Inhibiton) (HEL cells [1]; siMcl1-2, ABT-263 0.3 uM): 100% | Cell Viability (% Inhibiton) (HEL cells [1]; siMcl1-2, ABT-263 1 uM): 100% | Cell Viability (% Inhibiton) (HEL cells [1]; siMcl1-3, ABT-263 0.003 uM): 0% | Cell Viability (% Inhibiton) (HEL cells [1]; siMcl1-3, ABT-263 0.01 uM): 37% | Cell Viability (% Inhibiton) (HEL cells [1]; siMcl1-3, ABT-263 0.03 uM): 65% | Cell Viability (% Inhibiton) (HEL cells [1]; siMcl1-3, ABT-263 0.1 uM): 90% | Cell Viability (% Inhibiton) (HEL cells [1]; siMcl1-3, ABT-263 0.3 uM): 100% | Cell Viability (% Inhibiton) (HEL cells [1]; siMcl1-3, ABT-263 1 uM): 100% | Cell Viability (% Inhibiton) (HEL cells [1]; siMcl1-4, ABT-263 0.003 uM): 0% | Cell Viability (% Inhibiton) (HEL cells [1]; siMcl1-4, ABT-263 0.01 uM): 58% | Cell Viability (% Inhibiton) (HEL cells [1]; siMcl1-4, ABT-263 0.03 uM): 85% | Cell Viability (% Inhibiton) (HEL cells [1]; siMcl1-4, ABT-263 0.1 uM): 94% | Cell Viability (% Inhibiton) (HEL cells [1]; siMcl1-4, ABT-263 0.3 uM): 100% | Cell Viability (% Inhibiton) (HEL cells [1]; siMcl1-4, ABT-263 1 uM): 100% | Cell Viability (% Inhibiton) (HEL cells [1]; siNT-1, ABT-263 0.003 uM): 0% | Cell Viability (% Inhibiton) (HEL cells [1]; siNT-1, ABT-263 0.01 uM): 0% | Cell Viability (% Inhibiton) (HEL cells [1]; siNT-1, ABT-263 0.03 uM): 7% | Cell Viability (% Inhibiton) (HEL cells [1]; siNT-1, ABT-263 0.1 uM): 30% | Cell Viability (% Inhibiton) (HEL cells [1]; siNT-1, ABT-263 0.3 uM): 93% | Cell Viability (% Inhibiton) (HEL cells [1]; siNT-1, ABT-263 1 uM): 98% | Cell Viability (% Inhibiton) (K562 cells; K562, Unt., ABT-263 0.003 uM): 0% | Cell Viability (% Inhibiton) (K562 cells; K562, Unt., ABT-263 0.01 uM): 0% | Cell Viability (% Inhibiton) (K562 cells; K562, Unt., ABT-263 0.03 uM): 0% | Cell Viability (% Inhibiton) (K562 cells; K562, Unt., ABT-263 0.1 uM): 0% | Cell Viability (% Inhibiton) (K562 cells; K562, Unt., ABT-263 0.3 uM): 0% | Cell Viability (% Inhibiton) (K562 cells; K562, Unt., ABT-263 1 uM): 5% | Cell Viability (% Inhibiton) (K562 cells; K562, siMcl1-1, ABT-263 0.003 uM): 0% | Cell Viability (% Inhibiton) (K562 cells; K562, siMcl1-1, ABT-263 0.01 uM): 0% | Cell Viability (% Inhibiton) (K562 cells; K562, siMcl1-1, ABT-263 0.03 uM): 0% | Cell Viability (% Inhibiton) (K562 cells; K562, siMcl1-1, ABT-263 0.1 uM): 0% | Cell Viability (% Inhibiton) (K562 cells; K562, siMcl1-1, ABT-263 0.3 uM): 0% | Cell Viability (% Inhibiton) (K562 cells; K562, siMcl1-1, ABT-263 1 uM): 0% | Cell Viability (% Inhibiton) (K562 cells; K562, siMcl1-2, ABT-263 0.003 uM): 0% | Cell Viability (% Inhibiton) (K562 cells; K562, siMcl1-2, ABT-263 0.01 uM): 0% | Cell Viability (% Inhibiton) (K562 cells; K562, siMcl1-2, ABT-263 0.03 uM): 0% | Cell Viability (% Inhibiton) (K562 cells; K562, siMcl1-2, ABT-263 0.1 uM): 2% | Cell Viability (% Inhibiton) (K562 cells; K562, siMcl1-2, ABT-263 0.3 uM): 11% | Cell Viability (% Inhibiton) (K562 cells; K562, siMcl1-2, ABT-263 1 uM): 21% | Cell Viability (% Inhibiton) (K562 cells; K562, siMcl1-3, ABT-263 0.003 uM): 0% | Cell Viability (% Inhibiton) (K562 cells; K562, siMcl1-3, ABT-263 0.01 uM): 0% | Cell Viability (% Inhibiton) (K562 cells; K562, siMcl1-3, ABT-263 0.03 uM): 0% | Cell Viability (% Inhibiton) (K562 cells; K562, siMcl1-3, ABT-263 0.1 uM): 0% | Cell Viability (% Inhibiton) (K562 cells; K562, siMcl1-3, ABT-263 0.3 uM): 13% | Cell Viability (% Inhibiton) (K562 cells; K562, siMcl1-3, ABT-263 1 uM): 32% | Cell Viability (% Inhibiton) (K562 cells; K562, siMcl1-4, ABT-263 0.003 uM): 0% | Cell Viability (% Inhibiton) (K562 cells; K562, siMcl1-4, ABT-263 0.01 uM): 3% | Cell Viability (% Inhibiton) (K562 cells; K562, siMcl1-4, ABT-263 0.03 uM): 22% | Cell Viability (% Inhibiton) (K562 cells; K562, siMcl1-4, ABT-263 0.1 uM): 60% | Cell Viability (% Inhibiton) (K562 cells; K562, siMcl1-4, ABT-263 0.3 uM): 75% | Cell Viability (% Inhibiton) (K562 cells; K562, siMcl1-4, ABT-263 1 uM): 80% | Cell Viability (% Inhibiton) (K562 cells; K562, siNT-1, ABT-263 0.003 uM): 0% | Cell Viability (% Inhibiton) (K562 cells; K562, siNT-1, ABT-263 0.01 uM): 0% | Cell Viability (% Inhibiton) (K562 cells; K562, siNT-1, ABT-263 0.03 uM): 0% | Cell Viability (% Inhibiton) (K562 cells; K562, siNT-1, ABT-263 0.1 uM): 0% | Cell Viability (% Inhibiton) (K562 cells; K562, siNT-1, ABT-263 0.3 uM): 2% | Cell Viability (% Inhibiton) (K562 cells; K562, siNT-1, ABT-263 1 uM): 10% | Viability (% Inhibiton) (HEL cells [2]; ABT-263 0.003 uM): 0% | Viability (% Inhibiton) (HEL cells [2]; ABT-263 0.01 uM): 0% | Viability (% Inhibiton) (HEL cells [2]; ABT-263 0.03 uM): 1% | Viability (% Inhibiton) (HEL cells [2]; ABT-263 0.1 uM): 14% | Viability (% Inhibiton) (HEL cells [2]; ABT-263 0.3 uM): 55% | Viability (% Inhibiton) (HEL cells [2]; ABT-263 1 uM): 95% | Ki (Bcl-w): < 1 nM

CC(C)(C)c1nc2c3cc[nH]c(=O)c3c3cc(F)ccc3c2[nH]1 [JAKi-I, JAK inhibitor I]
Ki (MAP2K3): > 3100 nM | Ki (PKCzeta): > 5240 nM | Ki (Plk3): > 1550 nM | Ki (Rock2): > 3330 nM | Ki (STK33): 30.2 nM | Ki (TAOK2): > 6610 nM | STAT3 binding to the MCL1 promoter [3]: disrupted
